Test results: patent publication US6852700B1, “Colostrinin, and uses thereof” (Ludwig Hirzfeld Institute of Immunology and Experimental …, priority 1996, dated 2005)
Ends that are not written are not given here.

Key:
[1] = test system: mice; assay: Toxicological studies on mice; format: in vivo; details: both after oral and parenteral administration
[2] = test system: patients with Alzheimer's disease; assay: Treatment of volunteer patients with Alzheimer's disease with tablets for sucking; format: in vivo, human
Experimental: (§1) The method of treatment of disorders of the central nervous system was investigated on a group of volunteer patients in the early and moderate stages of Alzheimer's disease. The dosage units were administered in the form of tablets for sucking, between meals, containing 0.00015 g of Colostrinin™ defined in Examples I and III. Firstly, 1 tablet was used daily for a period of 3 weeks, then therapy was interrupted for 2-4 weeks and treatment was repeated, administering 2 tablets daily for 3 weeks. […] This is manifested by an inability to synthesise IFN and also tumour necrosis factor TNF-α. This phenomenon permits quantitative measurements of the action of active agent.
This was followed by a 3-week pause in treatment (during the pause, the tolerance to the inducer returns to normal). Blood samples for investigating stimulation of IFN-γ by Colostrinin™ and control inducers (PHA-10 μg/ml) were taken every week. The method of performing the tests for induction of cytokines and their quantitative determination were described in previous sections.
as §1, with “early” for “early and moderate”, “sucking” for “sucking,”, “NP” for “Colostrinin™”, “Example II.” for “Examples I and III.”, “3” for “2-4”

[3] = test system: lymphocytes isolated from cord blood (CBL); assay: Induction of cytokines in a culture of lymphocytes isolated from cord blood (CBL); format: cell-based, human; details: 20 hours
Experimental: Cord blood obtained from the Gynaecological-Obstetric Department of the Specialist District Hospital in Wroclaw. Induction of cytokines by Colostrinin™ in vitro in lymphocytes of cord blood taken 4-6 hours after parturition is effected in the following way.
The lymphocytes are isolated using a Ficoll-Paque® gradient containing 5.7 g of the component Ficoll 400 and 9.0 g of the component Diatrizoate Sodium per 100 ml. The lymphocytes isolated are suspended in RPMI-1640 culture medium at density of 2×10^6 lymphocyte cells per 1 ml of culture medium. Colostrinin™ at concentration of 1-20 μg/ml or phytohaemagglutinin at concentration of 10 μg/ml is added to the lymphocyte suspension. The culture is incubated for 20 hours at a temperature of 37° C. Then the level of cytokines in the culture fluids is determined by biological methods.

[4] = test system: lymphocytes present in whole blood; assay: Induction of cytokines in vitro in whole blood cultures; format: cell-based, human
Experimental: Induction of cytokines by the polypeptide Colostrinin™ in vitro on blood taken from healthy and sick volunteers taking the pharmaceutical in the form stated in Example III, in cyclic treatment, is carried out as follows.
Whole blood, containing 10 units per 1 ml of heparin without preservatives is diluted at 1:10 ratio in RPMI 1640 culture medium. Incubation is conducted in the same culture medium without inducers (negative control), or in the presence of 1-100 μg/ml of the polypeptide Colostrinin™ or in the presence of 2 μg/ml blood of phytohaemagglutinin (PHA) and 2 μg/ml blood of lipopolysaccharide (LPS), at a temperature of 37° C., in an atmosphere of 5% carbon dioxide, for 20 hours. Samples with mixture of PHA and LPS are the positive control, as they can stimulate the maximum quantities of cytokines.

[5] = test system: mice exposed to gamma radiation; assay: Radiation sickness in mice exposed to gamma radiation; format: in vivo
[6] = test system: mice of the NZB line; assay: Haemolytic anaemia in mice of the NZB line; format: in vivo; details: intraperitoneal administration
[7] = test system: sarcoma 180; assay: Growth of sarcoma 180 in mice; format: in vivo; details: intraperitoneal administration in mice
[8] = test system: human volunteers; details: tablets for sucking, at least 25 μg, at least one daily, about 3 weeks
[9] = early and moderate Alzheimer's disease, 1 tablet daily 3 weeks, pause 2-4 weeks, 2 tablets daily 3 weeks
[10] = donor four breast cancer, dose 10 μg/ml
[11] = donor four breast cancer, dose 100 μg/ml
[12] = donor one. Alzheimer's disease, dose 10 μg/ml
[13] = donor one. Alzheimer's disease, dose 100 μg/ml
[14] = donor six healthy young soldier, dose 1 μg/ml
[15] = donor six healthy young soldier, dose 10 μg/ml
[16] = donor six healthy young soldier, dose 100 μg/ml
[17] = donor three schizophrenia, dose 10 μg/ml
[18] = donor three schizophrenia, dose 100 μg/ml
[19] = donor two healthy young soldier, dose 1 μg/ml
[20] = donor two healthy young soldier, dose 10 μg/ml
[21] = donor two healthy young soldier, dose 100 μg/ml
[22] = healthy volunteers, inducer dose 10 μg/ml, 20 hours
[23] = healthy volunteers, inducer dose 100 μg/ml, 20 hours
[24] = patients with Alzheimer's disease, inducer dose 10 μg/ml
[25] = patients with Alzheimer's disease, inducer dose 100 μg/ml
[26] = early Alzheimer's disease, NP tablets, 1 daily 3 weeks, pause 3 weeks, 2 daily 3 weeks

What does the source list for Colostrinin ™?
LD50 [1]: above 1.25 g/kg of body weight; clinical effect in patients with Alzheimer's disease [2, 9]: improvement of contact and uplift of mood were observed; reactivity to induction of IFN and TNF-α after treatment [2, 9]: induced a state of hyporeactivity or tolerance; time course of hyporeactivity to induction of IFN-γ (FIG. 1) ([2]; patient five, 100 μg tablet every other day for three weeks, then 3-week pause): hyporeactivity appears as early as during the first week; Cytokines IFN ([3]; dose 1 μg/ml): 38 ± 66 unit/ml; Cytokines TNF ([3]; dose 1 μg/ml): 16 ± 17 unit/ml; Cytokines IFN ([3]; dose 10 μg/ml): 78 ± 80 unit/ml; Cytokines TNF ([3]; dose 10 μg/ml): 37 ± 35 unit/ml; Cytokines IFN ([3]; dose 20 μg/ml): 89 ± 79 unit/ml; Cytokines TNF ([3]; dose 20 μg/ml): 59 ± 41 unit/ml; production of cytokines, dose dependence ([4]; concentrations of 1-100 μg/ml, whole blood): stimulates the production of cytokines in a dose-dependent fashion; production of cytokines (IFN-γ, TNF-α, IL-6, IL-10, growth factors) ([4]; cultures of lymphocytes of human peripheral blood (including cord blood)): stimulates the production of cytokines; Titres of IFN determined by Antivirus biotest [4, 10]: 50 units/ml; Titres of IFN determined by ELISA IFN-γ [4, 10]: 307 pg/mL; Titres of IFN determined by Antivirus biotest [4, 11]: 70 units/ml; Titres of IFN determined by ELISA IFN-γ [4, 11]: 523 pg/mL; Titres of IFN determined by Antivirus biotest [4, 12]: 20 units/ml; Titres of IFN determined by ELISA IFN-γ [4, 12]: 427 pg/mL; Titres of IFN determined by Antivirus biotest [4, 13]: 40 units/ml; Titres of IFN determined by ELISA IFN-γ [4, 13]: 400 pg/mL; Titres of IFN determined by Antivirus biotest [4, 14]: 100 units/ml; Titres of IFN determined by ELISA IFN-γ [4, 14]: 2690 pg/mL; Titres of IFN determined by Antivirus biotest [4, 15]: 200 units/ml; Titres of IFN determined by ELISA IFN-γ [4, 15]: 3778 pg/mL; Titres of IFN determined by Antivirus biotest [4, 16]: 600 units/ml; Titres of IFN determined by ELISA IFN-γ [4, 16]: 3941 pg/mL; Titres of IFN determined by Antivirus biotest [4, 17]: 6 units/ml; Titres of IFN determined by ELISA IFN-γ [4, 17]: 29 pg/mL; Titres of IFN determined by Antivirus biotest [4, 18]: 6 units/ml; Titres of IFN determined by ELISA IFN-γ [4, 18]: 29 pg/mL; Titres of IFN determined by Antivirus biotest [4, 19]: 100 units/ml; Titres of IFN determined by ELISA IFN-γ [4, 19]: 1413 pg/mL; Titres of IFN determined by Antivirus biotest [4, 20]: 300 units/ml; Titres of IFN determined by ELISA IFN-γ [4, 20]: 3402 pg/mL; Titres of IFN determined by Antivirus biotest [4, 21]: 300 units/ml; Titres of IFN determined by ELISA IFN-γ [4, 21]: 2920 pg/mL; Cytokines IFN [4, 22]: 50 ± 59 unit/ml; Cytokines TNF [4, 22]: 316 ± 371 unit/ml; Cytokines IFN [4, 23]: 344 ± 254 unit/ml; Cytokines TNF [4, 23]: 670 ± 560 unit/ml; Cytokines IFN [4, 24]: 15 ± 9 unit/ml; Cytokines TNF [4, 24]: 182 ± 158 unit/ml; Cytokines IFN [4, 25]: 21 ± 14 unit/ml; Cytokines TNF [4, 25]: 249 ± 187 unit/ml; protection against radiation sickness [5]: protects the animals against radiation sickness; development of haemolytic anaemia [6]: inhibits the development of haemolytic anaemia; growth of sarcoma 180 [7]: inhibit the growth of sarcoma 180; reactivity to induction of IFN-γ and TNF-α [8]: state of hyporeactivity

With “phytohaemagglutinin [PHA, reference compound]” as the substance, how does the “Cytokines IFN” value ([3]; PHA dose 10 μg/ml) read?
The value was 75 ± 66 unit/ml.

And the “Cytokines TNF” value ([3]; PHA dose 10 μg/ml)?
The value was 83 ± 69 unit/ml.

“VESYVPLFP [NP, nonapeptide fragment of Colostrinin obtained by chymotrypsin digestion or chemical synthesis]” was tested. Which “clinical effect in patients with Alzheimer's disease” value [2, 26] did it give?
The value was “improvement of contact and uplift of mood were observed”.

And the “reactivity to induction of IFN and TNF-α after treatment” value [2, 26]?
The value was “induced a state of hyporeactivity or tolerance”.
